Data reported in patent US11331299B2, “Medicinal use of serrulatane diterpenes” (The University of Sydney, priority 2016, dated 2022).
Like-named read-outs stand apart in the source and are kept apart here.

Assays:
PCAF (h) bromodomain = target: T1, PCAF (h) bromodomain (Homo sapiens, UniProt Q92831); test: Epigenetic binding assay, Bromodomain; details: 10 μM; read-out: % Inhibition of Control Specific Binding
T1 construct: Bromodomain
T1 sequence (Q92831 723-827 limits assumed): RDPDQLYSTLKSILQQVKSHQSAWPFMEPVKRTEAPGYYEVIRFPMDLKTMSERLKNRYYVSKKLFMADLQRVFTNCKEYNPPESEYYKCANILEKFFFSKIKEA

CBX7 (h) chromodomain = target: T2, CBX7 (h) chromodomain (Homo sapiens, UniProt O95931); test: Epigenetic binding assay, Chromodomain; details: read-out: % Inhibition of Control Specific Binding
T2 construct: Recognition and specificity determinants of the human cbx chromodomains; Eurofins CEREP (France), contract laboratory
T2 sequence (O95931 11-69 limits assumed): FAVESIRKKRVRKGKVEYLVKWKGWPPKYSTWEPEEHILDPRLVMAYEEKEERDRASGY

CBX8 (h) chromodomain = target: T3, CBX8 (h) chromodomain (Homo sapiens, UniProt Q9HC52); test: Epigenetic binding assay, Chromodomain; details: read-out: % Inhibition of Control Specific Binding
T3 construct: Recognition and specificity determinants of the human cbx chromodomains; Eurofins CEREP (France), contract laboratory
T3 sequence (Q9HC52 11-69 limits assumed): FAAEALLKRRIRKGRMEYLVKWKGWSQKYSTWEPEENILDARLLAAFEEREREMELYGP

SP140 (h) PHD domain = target: T4, SP140 (h) PHD domain (Homo sapiens, UniProt Q13342); test: Epigenetic binding assay, PHD domain; details: for inhibition at 10 µM: read-out: % Inhibition of Control Specific Binding
T4 construct: Eurofins CEREP (France), contract laboratory
T4 sequence (Q13342 690-736 limits assumed): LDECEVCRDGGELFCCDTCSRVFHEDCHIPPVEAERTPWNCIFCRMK

JMJD2D (h) = target: T5, JMJD2D (h) (Homo sapiens, UniProt Q6B0I6); test: Epigenetic enzyme assay, Demethylases (KDMs); type: biochemical; details: read-out: % Inhibition of Control Values
T5 sequence (Q6B0I6 1-523): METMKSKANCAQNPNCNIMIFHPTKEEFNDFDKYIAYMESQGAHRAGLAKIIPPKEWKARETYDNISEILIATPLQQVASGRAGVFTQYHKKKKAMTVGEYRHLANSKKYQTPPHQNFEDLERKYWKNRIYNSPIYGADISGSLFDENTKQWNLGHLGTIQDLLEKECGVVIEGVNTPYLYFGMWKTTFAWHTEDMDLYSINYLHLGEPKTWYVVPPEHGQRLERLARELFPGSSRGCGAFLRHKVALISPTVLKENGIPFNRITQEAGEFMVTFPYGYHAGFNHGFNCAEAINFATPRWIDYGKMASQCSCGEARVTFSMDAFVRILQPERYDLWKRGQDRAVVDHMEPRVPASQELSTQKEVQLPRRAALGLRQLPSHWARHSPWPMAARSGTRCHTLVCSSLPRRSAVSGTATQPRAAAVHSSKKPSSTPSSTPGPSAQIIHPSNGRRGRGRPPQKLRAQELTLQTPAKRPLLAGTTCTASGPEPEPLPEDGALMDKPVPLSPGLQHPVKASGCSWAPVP

HDAC1 (h) = HDAC1 (h) (Homo sapiens, UniProt Q13547); test: Epigenetic enzyme assay, Histone deacetylase (HDACs); type: biochemical; details: read-out: % Inhibition of Control Values
Chain of HDAC1 (h) (Q13547 whole entry): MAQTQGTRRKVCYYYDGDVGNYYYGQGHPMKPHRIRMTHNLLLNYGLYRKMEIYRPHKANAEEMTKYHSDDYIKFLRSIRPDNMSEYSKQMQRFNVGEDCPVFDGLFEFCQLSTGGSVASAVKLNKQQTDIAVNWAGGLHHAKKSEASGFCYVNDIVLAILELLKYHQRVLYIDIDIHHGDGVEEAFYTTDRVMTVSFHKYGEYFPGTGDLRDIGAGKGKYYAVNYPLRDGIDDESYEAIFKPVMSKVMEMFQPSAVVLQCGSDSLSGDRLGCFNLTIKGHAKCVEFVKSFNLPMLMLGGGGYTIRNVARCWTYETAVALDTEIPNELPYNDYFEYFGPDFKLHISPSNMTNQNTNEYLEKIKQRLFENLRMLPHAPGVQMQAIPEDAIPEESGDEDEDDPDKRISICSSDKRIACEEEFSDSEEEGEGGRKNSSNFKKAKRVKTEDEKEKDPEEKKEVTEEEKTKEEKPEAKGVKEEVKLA

[1] = target: T6, Phenylethanolamine N-methyltransferase (h) (Homo sapiens, UniProt P11086); test: Epigenetic enzyme assay, Small molecule methyltransferases; type: biochemical; details: read-out: % Inhibition of Control Values
T6 sequence (P11086 1-282): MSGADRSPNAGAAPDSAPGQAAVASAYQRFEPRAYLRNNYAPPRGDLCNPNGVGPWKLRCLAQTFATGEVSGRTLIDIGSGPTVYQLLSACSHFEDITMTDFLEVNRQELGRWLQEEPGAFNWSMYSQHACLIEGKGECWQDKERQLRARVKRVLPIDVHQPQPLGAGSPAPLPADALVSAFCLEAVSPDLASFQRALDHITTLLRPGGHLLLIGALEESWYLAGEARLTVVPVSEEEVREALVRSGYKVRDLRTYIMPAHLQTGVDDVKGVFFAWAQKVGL

[2] = tested on: Catechol-O-Methyl Transferase (COMT); test: Catechol-O-Methyl Transferase (COMT); type: biochemical, Porcine; details: 10 μM; assay year 2015
Description: (§1) The in vitro pharmacological studies were conducted by Eurofins PanLab (Taiwan) using the parameters shown in Table 13 with respect to appropriate literature references.

[3] = target: T7, Protein Tyrosine Phosphatase, PTPN1 (PTP1B) (Homo sapiens, UniProt P18031); test: Protein Tyrosine Phosphatase, PTPN1 (PTP1B); type: biochemical; details: assay year 2015, read-out: % Control Response
T7 construct: host or cells: E. coli
T7 sequence (P18031 1-435): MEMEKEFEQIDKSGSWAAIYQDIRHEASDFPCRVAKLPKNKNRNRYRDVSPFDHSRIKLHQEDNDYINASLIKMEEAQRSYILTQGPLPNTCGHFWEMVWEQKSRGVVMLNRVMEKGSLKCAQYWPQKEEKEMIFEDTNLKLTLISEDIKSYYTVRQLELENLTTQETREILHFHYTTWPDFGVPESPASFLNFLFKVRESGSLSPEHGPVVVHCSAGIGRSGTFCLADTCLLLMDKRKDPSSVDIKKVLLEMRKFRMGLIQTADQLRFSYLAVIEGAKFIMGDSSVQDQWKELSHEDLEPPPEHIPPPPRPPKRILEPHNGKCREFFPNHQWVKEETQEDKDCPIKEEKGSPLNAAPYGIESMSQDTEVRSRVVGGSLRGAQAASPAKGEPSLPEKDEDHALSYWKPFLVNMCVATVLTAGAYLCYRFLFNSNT
Description: as §1

MDA-MB-415 = test: OncoPanel cell proliferation assay (10-day); type: cell-based, human; details: for EC50 / GI50 / IC50: Homo sapiens, MDA-MB-415, Breast; for EC50: read-out: Cell Count EC50; for GI50: read-out: Cell Count GI50; for IC50: read-out: Cell Count IC50
Hs 729 = test: OncoPanel cell proliferation assay (10-day); type: cell-based, human; details: for EC50 / GI50 / IC50: Homo sapiens, Hs 729, Soft Tissue - Sarcoma; for EC50: read-out: Cell Count EC50; for GI50: read-out: Cell Count GI50; for IC50: read-out: Cell Count IC50
IM-9 = test: OncoPanel cell proliferation assay (10-day); type: cell-based, human; details: for EC50 / GI50 / IC50: Homo sapiens, IM-9, Myeloma; for EC50: read-out: Cell Count EC50; for GI50: read-out: Cell Count GI50; for IC50: read-out: Cell Count IC50
KG-1 leukemia cell line = test: OncoPanel cell proliferation assay (10-day); type: cell-based; details: Homo sapiens; for EC50: read-out: Cell Count EC50; for IC50: read-out: Cell Count IC50
[4] = KG-1, Leukemia, read-out: Cell Count GI50

CC(C)=CCC[C@H](CO)[C@@H]1CC[C@@H](C)c2c1cc(C)c(O)c2O [Compound 1, 7,8,18-trihydroxyserrulat-14-ene]
inhibition at 10 µM (PCAF (h) bromodomain): 37% | inhibition at 10 µM (CBX7 (h) chromodomain): 25% | inhibition at 10 µM (CBX8 (h) chromodomain): 27% | % Inhibition of Control Specific Binding (SP140 (h) PHD domain; 10 μM): good inhibitory activity | inhibition at 10 µM (SP140 (h) PHD domain; 10 μM): 74% | IC50 (SP140 (h) PHD domain; Table 9, inhibition/concentration-response curve): 4.6 µM | inhibition at 10 µM (JMJD2D (h)): 36% | inhibition at 10 µM (HDAC1 (h)): -2% | inhibition at 10 µM [1]: 23% | % Control Response [2]: 0% | remaining activity at 10 µM [3]: 20% | Relative cell count (%) Mean (MDA-MB-415; 3.00E+00 microM): 1.3% | Relative cell count (%) Mean (MDA-MB-415; 3.00E+01 microM): 0.2% | Relative cell count (%) Mean (MDA-MB-415; 3.01E−01 microM): 100.2% | Relative cell count (%) Mean (MDA-MB-415; 3.01E−02 microM): 93.4% | Relative cell count (%) Mean (MDA-MB-415; 3.02E−03 microM): 100.0% | Relative cell count (%) Mean (MDA-MB-415; 9.49E+00 microM): 0.3% | Relative cell count (%) Mean (MDA-MB-415; 9.51E−01 microM): 62.3% | Relative cell count (%) Mean (MDA-MB-415; 9.52E−02 microM): 98.1% | Relative cell count (%) Mean (MDA-MB-415; 9.53E−03 microM): 98.0% | Relative cell count (%) Mean (MDA-MB-415; 9.55E−04 microM): 90.2% | EC50 (MDA-MB-415): 1.02 µM | GI50 (MDA-MB-415): 1 µM | IC50 (MDA-MB-415): 1.02 µM | EC50 (Hs 729): 2.77 µM | GI50 (Hs 729): 2.67 µM | IC50 (Hs 729): 2.78 µM | Relative cell count (%) Mean (Hs 729; Hs 729, 3.00E+00 microM): 46.0% | Relative cell count (%) Mean (Hs 729; Hs 729, 3.00E+01 microM): 1.0% | Relative cell count (%) Mean (Hs 729; Hs 729, 3.01E−01 microM): 99.4% | Relative cell count (%) Mean (Hs 729; Hs 729, 3.01E−02 microM): 107.0% | Relative cell count (%) Mean (Hs 729; Hs 729, 3.02E−03 microM): 103.0% | Relative cell count (%) Mean (Hs 729; Hs 729, 9.49E+00 microM): 3.2% | Relative cell count (%) Mean (Hs 729; Hs 729, 9.51E−01 microM): 98.9% | Relative cell count (%) Mean (Hs 729; Hs 729, 9.52E−02 microM): 99.9% | Relative cell count (%) Mean (Hs 729; Hs 729, 9.53E−03 microM): 108.7% | Relative cell count (%) Mean (Hs 729; Hs 729, 9.55E−04 microM): 100.6% | EC50 (IM-9): 0.42 µM | GI50 (IM-9): 0.42 µM | IC50 (IM-9): 0.42 µM | Relative cell count (%) Mean (IM-9; IM-9, 3.00E+00 microM): 0.1% | Relative cell count (%) Mean (IM-9; IM-9, 3.00E+01 microM): 0.0% | Relative cell count (%) Mean (IM-9; IM-9, 3.01E−01 microM): 97.5% | Relative cell count (%) Mean (IM-9; IM-9, 3.01E−02 microM): 107.3% | Relative cell count (%) Mean (IM-9; IM-9, 3.02E−03 microM): 102.8% | Relative cell count (%) Mean (IM-9; IM-9, 9.49E+00 microM): 0.1% | Relative cell count (%) Mean (IM-9; IM-9, 9.51E−01 microM): 0.0% | Relative cell count (%) Mean (IM-9; IM-9, 9.52E−02 microM): 97.7% | Relative cell count (%) Mean (IM-9; IM-9, 9.53E−03 microM): 103.1% | Relative cell count (%) Mean (IM-9; IM-9, 9.55E−04 microM): 94.9% | EC50 (KG-1 leukemia cell line; KG-1, Leukemia): 0.12 µM | GI50 (KG-1 leukemia cell line; [4]): 0.11 µM | IC50 (KG-1 leukemia cell line; KG-1, Leukemia): 0.12 µM | GI50 (KG-1 leukemia cell line; read-out: GI50): 0.11 µM

CC(C)=CCC[C@@H]1C(O)Oc2c(C)cc(O)c3c2[C@H]1CC[C@H]3C (stereo partly drawn) [Compound 2, 5,18-epoxyserrulat-14-en-8,18-diol]
inhibition at 10 µM (PCAF (h) bromodomain): 16% | inhibition at 10 µM (CBX7 (h) chromodomain): 33% | inhibition at 10 µM (CBX8 (h) chromodomain): 31% | inhibition at 10 µM (SP140 (h) PHD domain; 10 μM): 0% | inhibition at 10 µM (JMJD2D (h)): -17% | inhibition at 10 µM (HDAC1 (h)): -1% | inhibition at 10 µM [1]: 9% | % Control Response [2]: −1% | remaining activity at 10 µM [3]: 3% | EC50 (MDA-MB-415): 11.5 µM | GI50 (MDA-MB-415): 10.8 µM | IC50 (MDA-MB-415): 11.5 µM | EC50 (Hs 729): 23.3 µM | GI50 (Hs 729): 21.8 µM | IC50 (Hs 729): 23.3 µM | EC50 (IM-9): 3.92 µM | GI50 (IM-9): 3.92 µM | IC50 (IM-9): 3.92 µM | EC50 (KG-1 leukemia cell line; KG-1, Leukemia): 11.3 µM | GI50 (KG-1 leukemia cell line; [4]): 11.9 µM | IC50 (KG-1 leukemia cell line; KG-1, Leukemia): 12 µM

CC(C)=CCC[C@@H]1COc2c(C)cc(O)c3c2[C@H]1CC[C@H]3C [Compound 3, 5,18-epoxy-8-hydroxyserrulat-14-ene]
inhibition at 10 µM (PCAF (h) bromodomain): 3% | inhibition at 10 µM (CBX7 (h) chromodomain): 43% | inhibition at 10 µM (CBX8 (h) chromodomain): 23% | inhibition at 10 µM (SP140 (h) PHD domain; 10 μM): 2% | inhibition at 10 µM (JMJD2D (h)): 18% | inhibition at 10 µM (HDAC1 (h)): -1% | inhibition at 10 µM [1]: 5% | % Control Response [2]: 3% | remaining activity at 10 µM [3]: -3%

CC(C)=CCC[C@H](C)[C@@H]1CC[C@@H](C)c2c1cc(C)c(O)c2O [Compound 4, 7,8-dihydroxyserrulat-14-ene]
EC50 (MDA-MB-415): 28.5 µM | GI50 (MDA-MB-415): 27.4 µM | IC50 (MDA-MB-415): 28.5 µM | EC50 (Hs 729): 11.9 µM | GI50 (Hs 729): 11.6 µM | IC50 (Hs 729): 11.9 µM | EC50 (IM-9): 6.71 µM | GI50 (IM-9): 6.71 µM | IC50 (IM-9): 6.71 µM | EC50 (KG-1 leukemia cell line; KG-1, Leukemia): 13.3 µM | GI50 (KG-1 leukemia cell line; [4]): 13.1 µM | IC50 (KG-1 leukemia cell line; KG-1, Leukemia): 13.3 µM
